test system: TNF-α production in LPS-stimulated human whole blood; assay: Inhibition of TNF-α production from human whole blood (hWBA); type: cell-based; settings: Homo sapiens, IC50 for TNF-α production, LPS-stimulated human whole blood; read-out: hWBA

In order of falling IC50:
1. COc1ccc2c(c1)C(=O)N(C[C@@]1(C#Cc3ccc4c(c3)C(C)Oc3cccnc3-4)NC(=O)NC1=O)C2 (some centres unmarked) [Compound 929]  3550 nM
2. COc1ccc2c(c1)C(=O)N(C[C@@]1(C#Cc3ccc(C(=O)NS(C)(=O)=O)nc3)NC(=O)NC1=O)C2 [Compound 902]  1370 nM
3. COc1ccc2c(c1)C(=O)N(C[C@]1(C#Cc3ccc(C(=O)NS(C)(=O)=O)nc3)NC(=O)NC1=O)C2 [Compound 901]  1000 nM
4. CCN1CCN(C(=NO)c2cncc(C#C[C@]3(CN4Cc5ccc(OC)cc5C4=O)NC(=O)NC3=O)c2)CC1 [Compound 923]  435 nM
5. COc1ccc2c(c1)C(=O)N(C[C@@]1(C#Cc3ccc(C4(C5CCC5)NC(=O)NC4=O)cc3)NC(=O)NC1=O)C2 (some centres unmarked) [Compound 906]  382 nM
6. COc1ccc2c(c1)C(=O)N(C[C@@]1(C#Cc3ccc4oc(C5(C)NC(=O)NC5=O)cc4c3)NC(=O)NC1=O)C2 (some centres unmarked) [Compound 909]  292 nM
7. COc1ccc2c(c1)C(=O)N(C[C@@]1(C#Cc3ccc(C(=NO)N4CCN(c5ccccc5)CC4)cc3)NC(=O)NC1=O)C2 [Compound 928]  278 nM
8. COc1ccc2c(c1)C(=O)N(C[C@@]1(C#Cc3cccc(C(=NO)N4CCOCC4)c3)NC(=O)NC1=O)C2 [Compound 916]  274 nM
9. COc1ccc2c(c1)C(=O)N(C[C@@]1(C#Cc3ccc(C(=NO)N4CCCCC4)cc3)NC(=O)NC1=O)C2 [Compound 946]  154 nM
10. COc1ccc2c(c1)C(=O)N(C[C@@]1(C#Cc3ccc(C(=NO)N4CCN(C5CCCCCC5)CC4)cc3)NC(=O)NC1=O)C2 [Compound 927]  151 nM
11. COc1ccc2c(c1)C(=O)N(C[C@@]1(C#Cc3ccc(C(=NO)N4CCN(C)CC4)cc3)NC(=O)NC1=O)C2 [Compound 943]  65 nM
12. CCN1CCN(C(=NO)c2ccc(C#C[C@]3(CN4Cc5ccc(OC)cc5C4=O)NC(=O)NC3=O)cc2)CC1 [Compound 911]  20 nM

same assay, conditions: Homo sapiens, IC50 for inhibition of TNF-α production, LPS-stimulated human whole blood; read-out: hWBA

In order of falling IC50:
1. COc1ccc2c(c1)C(=O)N(C[C@@]1(C#Cc3ccc(-c4ccccc4O)cc3)NC(=O)NC1=O)C2 [Compound 969]  652 nM
2. CSc1ccc2c(c1)C(=O)N(C[C@@]1(C#Cc3cccnc3)NC(=O)NC1=O)C2 [Compound 312]  651 nM
3. CCN1CCN(C(=O)c2ccc(C#C[C@]3(CN4Cc5ccc(OC)cc5C4=O)NC(=O)NC3=O)cc2)CC1 [Compound 960]  446 nM
4. COc1ccc2c(c1)C(=O)N(C[C@@]1(C#Cc3ccc(C(=O)N4CCC(N5CCCCC5)CC4)cc3)NC(=O)NC1=O)C2 [Compound 963]  401 nM

same assay, conditions: IC50 for TNF-α production, LPS-stimulated human whole blood; read-out: hWBA

In order of rising IC50:
1. COc1ccc2c(c1)C(=O)N(C[C@@]1(C#Cc3ccc(C(=NO)N4CCCN(C)CC4)cc3)NC(=O)NC1=O)C2 [Compound 913]  45 nM
2. COc1ccc2c(c1)C(=O)N(C[C@@]1(C#Cc3ccc(C(=NO)N4CCCN(C(C)C)CC4)cc3)NC(=O)NC1=O)C2 [Compound 931]  47 nM
3. CCN1CCN(c2ccc(O)c(-c3ccc(C#C[C@]4(CN5Cc6ccc(OC)cc6C5=O)NC(=O)NC4=O)cc3)n2)CC1 [Compound 936]  72.4 nM
4. CCCCN1CCN(C(=NO)c2ccc(C#C[C@]3(CN4Cc5ccc(OC)cc5C4=O)NC(=O)NC3=O)cc2)CC1 [Compound 925]  74 nM
5. COc1ccc2c(c1)C(=O)N(C[C@@]1(C#Cc3ccc(C(=NO)N4CCN(C5CCCCC5)CC4)cc3)NC(=O)NC1=O)C2 [Compound 926]  76 nM
6. COc1ccc2c(c1)C(=O)N(C[C@@]1(C#Cc3ccc(C(=NO)N4CCC(=O)CC4)cc3)NC(=O)NC1=O)C2 [Compound 945]  86 nM
7. COc1ccc2c(c1)C(=O)N(C[C@@]1(C#Cc3ccc(C(=NO)N4CCN(C)CC4)nc3)NC(=O)NC1=O)C2 [Compound 953]  87 nM
8. CCN1CCN(C(=NO)c2ccc(C#C[C@]3(CN4Cc5ccc(OC)cc5C4=O)NC(=O)NC3=O)cn2)CC1 [Compound 954]  87 nM
9. COc1ccc2c(c1)C(=O)N(C[C@@]1(C#Cc3ccc(C(=NO)N4CCN(C5CC5)CC4)cc3)NC(=O)NC1=O)C2 [Compound 922]  92 nM
10. COc1ccc2c(c1)C(=O)N(C[C@@]1(C#Cc3ccc(-c4ncccc4O)cc3)NC(=O)NC1=O)C2 [Compound 934]  117 nM
11. COc1ccc2c(c1)C(=O)N(C[C@@]1(C#Cc3ccc(C(=NO)N4CCSCC4)cc3)NC(=O)NC1=O)C2 [Compound 912]  153 nM
12. COc1ccc2c(c1)C(=O)N(C[C@@]1(C#Cc3ccc(C(=NO)N4CCC4)cc3)NC(=O)NC1=O)C2 [Compound 914]  186 nM
13. COc1ccc2c(c1)C(=O)N(C[C@@]1(C#Cc3ccc(C4(C)NC(=O)NC4=O)s3)NC(=O)NC1=O)C2 (some centres unmarked) [Compound 907]  208 nM
14. COc1ccc2c(c1)C(=O)N(C[C@@]1(C#Cc3ccc(C(=NO)N4CCN(C)CC4)s3)NC(=O)NC1=O)C2 [Compound 951]  220 nM
15. COc1ccc2c(c1)C(=O)N(C[C@@]1(C#Cc3cccc(C(=NO)N4CCN(C)CC4)c3)NC(=O)NC1=O)C2 [Compound 915]  221 nM
16. CCN1CCN(C(CO)c2ccc(C#C[C@]3(CN4Cc5ccc(OC)cc5C4=O)NC(=O)NC3=O)cc2)CC1 (some centres unmarked) [Compound 930]  504 nM
17. COc1ccc2c(c1)C(=O)N(C[C@@]1(C#Cc3csc(C4(C)NC(=O)NC4=O)c3)NC(=O)NC1=O)C2 (some centres unmarked) [Compound 908]  531 nM
18. COc1ccc2c(c1)C(=O)N(C[C@@]1(C#Cc3ccc4oc(C5(C)NC(=O)NC5=O)c(C)c4c3)NC(=O)NC1=O)C2 (some centres unmarked) [Compound 910]  545 nM
19. COc1ccc2c(c1)C(=O)N(C[C@@]1(C#Cc3ccc(C(=NO)N4CCOCC4)s3)NC(=O)NC1=O)C2 [Compound 952]  571 nM
20. COc1ccc2c(c1)C(=O)N(C[C@@]1(C#Cc3ccc(C(=NO)N4CCCC4)cc3)NC(=O)NC1=O)C2 [Compound 942]  641 nM
21. COc1ccc2c(c1)C(=O)N(C[C@@]1(C#Cc3ccc(-c4ccccc4O)cc3)NC(=O)NC1=O)C2 [Compound 955]  652 nM
22. C#C[C@]1(CN2Cc3ccc(OC)c(F)c3C2=O)NC(=O)NC1=O [Compound 23]  841 nM
23. COc1ccc2c(c1)C(=O)N(C[C@]1(C#Cc3cnc(N)c(C(=O)O)c3)NC(=O)NC1=O)C2 [Compound 903]  1000 nM
24. COc1ccc2c(c1)C(=O)N(C[C@@]1(C#Cc3ccc(/C=N\Nc4ccccc4)cc3)NC(=O)NC1=O)C2 [Compound 935]  1220 nM
25. COc1ccc2c(c1)C(=O)N(C[C@@]1(C#Cc3cncc(C(=NO)N4CCCN(C)CC4)c3)NC(=O)NC1=O)C2 [Compound 924]  1320 nM
26. COc1ccc2c(c1)C(=O)N(C[C@@]1(C#Cc3cnc(N)c(C(=O)NS(C)(=O)=O)c3)NC(=O)NC1=O)C2 [Compound 904]  10000 nM
27. COc1ccc2c(c1)C(=O)N(C[C@]1(C#Cc3ccc(C(=O)O)s3)NC(=O)NC1=O)C2 [Compound 905]  10000 nM

same assay, conditions: IC50 for inhibition of TNF-α production, LPS-stimulated human whole blood; read-out: hWBA

In order of falling IC50:
1. COc1ccc2c(c1F)C(=O)N(C[C@@]1(C#Cc3ccc(CN4CCc5ccc(F)cc5C4)nc3)NC(=O)NC1=O)C2 [Compound 968]  4980 nM
2. COc1ccc2c(c1)C(=O)N(C[C@@]1(C#Cc3ccc4c(c3)c(O)nn4C)NC(=O)NC1=O)C2 [Compound 712]  1530 nM
3. COc1ccc2c(c1)C(=O)N(C[C@@]1(C#Cc3ccc(C(=O)N4CCN(C5CC5)CC4)cc3)NC(=O)NC1=O)C2 [Compound 961]  1160 nM
4. COc1ccc2c(c1)C(=O)N(C[C@@]1(C#Cc3ccc4c(-c5ccncc5)n[nH]c4c3)NC(=O)NC1=O)C2 [Compound 734]  1010 nM
5. COc1ccc2c(c1F)C(=O)N(C[C@@]1(C#Cc3ccc(CN4CCCCC4)nc3)NC(=O)NC1=O)C2 [Compound 967]  785 nM
6. COc1ccc2c(c1)C(=O)N(C[C@@]1(C#Cc3cc(F)c4c(O)n[nH]c4c3)NC(=O)NC1=O)C2 [Compound 302]  723 nM
7. COc1ccc2c(c1F)C(=O)N(C[C@@]1(C#Cc3ccc(CN4CCOCC4)nc3)NC(=O)NC1=O)C2 [Compound 965]  698 nM
8. COc1ccc2c(c1F)C(=O)N(C[C@@]1(C#Cc3ccc(CN4CCSCC4)nc3)NC(=O)NC1=O)C2 [Compound 966]  588 nM
9. COc1ccc2c(c1)C(=O)N(C[C@@]1(C#Cc3ccc(C(=O)N4CCN(C5CCCCC5)CC4)cc3)NC(=O)NC1=O)C2 [Compound 962]  578 nM
10. CCN1CCN(c2ccc(OC)c(-c3ccc(C#C[C@]4(CN5Cc6ccc(OC)cc6C5=O)NC(=O)NC4=O)cc3)n2)CC1 [Compound 972]  573 nM
11. COc1ccc2c(c1)C(=O)N(C[C@@]1(C#Cc3ccc4c(O)nn(C)c4c3)NC(=O)NC1=O)C2 [Compound 715]  456 nM
12. CCN1CCN(C(=O)c2ccc(C#C[C@]3(CN4Cc5ccc(OC)c(F)c5C4=O)NC(=O)NC3=O)cc2)CC1 [Compound 964]  308 nM
13. COc1ccc2c(c1F)C(=O)N(C[C@@]1(C#Cc3ccc4c(c3)CN(C)C(=O)N4)NC(=O)NC1=O)C2 [Compound 307]  281 nM
14. COc1ccc2c(c1F)C(=O)N(C[C@@]1(C#Cc3ccc4c(=O)[nH][nH]c4c3)NC(=O)NC1=O)C2 [Compound 301]  226 nM
15. COc1ccc2c(c1)C(=O)N(C[C@@]1(C#Cc3ccc(CC4CCN(C)CC4)nc3)NC(=O)NC1=O)C2 [Compound 739]  195 nM
16. COc1ccc2c(c1)C(=O)N(C[C@@]1(C#Cc3ccc4c(CN(C)C)n[nH]c4c3)NC(=O)NC1=O)C2 [Compound 728]  163 nM
17. COc1ccc2c(c1)C(=O)N(C[C@@]1(C#Cc3ccc4c(O)n[nH]c4c3)NC(=O)NC1=O)C2 [Compound 748]  156 nM
18. COc1ccc2c(c1)C(=O)N(C[C@@]1(C#Cc3ccc(-c4cc(N)[nH]n4)cc3)NC(=O)NC1=O)C2 [Compound 747]  128 nM
19. COc1ccc2c(c1)C(=O)N(C[C@@]1(C#Cc3ccc4c(c3)c(N)nn4CCN(C)C)NC(=O)NC1=O)C2 [Compound 705]  101 nM
20. COc1ccc2c(c1)C(=O)N(C[C@@]1(C#Cc3ccc(-c4nc(-c5cccnc5)ccc4O)cc3)NC(=O)NC1=O)C2 [Compound 971]  80.2 nM
21. COc1ccc2c(c1)C(=O)N(C[C@@]1(C#Cc3ccc(-c4nc(-c5ccncc5)ccc4O)cc3)NC(=O)NC1=O)C2 [Compound 970]  65 nM
22. COc1ccc2c(c1)C(=O)N(C[C@@]1(C#Cc3ccc(-c4nc(-c5cnn(C)c5)ccc4O)cc3)NC(=O)NC1=O)C2 [Compound 973]  61 nM
